This note sets out measurements from US10513511B2, “Aqueous suspension formulation comprising 4-(4-(4-(((3R,5R)-5-((1H-1,2,4-triazol-1-yl)methyl)-5-(2,4-difluoro-phenyl)tetrahydrofuran-3-yl)methoxy)-3-methylphenyl) or a pharmaceutically acceptable salt thereof” (PULMOCIDE LIMITED, priority 2015, dated 2019).

What all share (assay type): cell-based
The subject of data set [1] is Aspergillus fumigatus NCPF2010. Kind of data set: Planktonic fungus growth: broth microdilution assay (NCPF2010). As to conditions: Aspergillus fumigatus, NCPF2010, n = 2-3, read-out: MIC75 Values against Aspergillus fumigatus isolate NCPF2010. As to the method:
(§1) This assay was conducted using a modified method published by EUCAST (Rodriguez-Tudela, et al., 2008). Spores of Aspergillus fumigatus (NCPF2010, NCPF7010 [methionine 220 mutation], NCPF7099 [Glycine G54 mutation]) from Public Health England, Wiltshire; TR34/L98H mutants from St Louis Hospital, Paris, France; TR46/Y121F/T289A mutants from University of Delhi, Delhi, India) were cultured in Sabouraud dextrose agar for 3 days. A stock spore suspension was prepared from a Sabouraud dextrose agar culture by washing with PBS-tween (10 mL; phosphate buffered saline containing 0.05% Tween-20, 100 U/mL penicillin and 100 U/mL streptomycin). The spore count was assessed using a Neubauer haemocytometer and then adjusted to 10^6 spores/mL with PBS. A working suspension of spores (2×10^5 spores/mL) was prepared in filter sterilised, BSA MOPS RPMI-1640 (50 mL; RPMI-1640 containing 2 mM L-glutamine, 0.5% BSA, 2% glucose, 0.165 M MOPS, buffered to pH 7 with NaOH).
(§2) For the assay, BSA MOPS RPMI-1640 (50 μL/well) was added throughout the 384-well plate (Catalogue number 353962, BD Falcon, Oxford, UK) first. Test compounds (0.5 μL DMSO solution) were then added in quadruplicate using an Integra VIAFLO 96 (Integra, Zizers, Switzerland), and mixed well using a plate mixer. Subsequently 50 μL of the working spore suspension prepared above was added to all wells except non-spore control wells. For non-spore control wells, BSA MOPS-RPMI solution (50 μL/well) was added instead. The plate was covered with a plastic lid, and incubated (35° C. with ambient air) for 48 hr. The OD of each well at 530 nm was determined using a multi-scanner (Clariostar: BMG, Buckinghamshire, UK). The percentage inhibition for each well was calculated and the MIC50, MIC75 and MIC90 values were calculated from the concentration-response curve generated for each test compound.

The test system of a further data set is BEAS2B cells. Briefly: Cell viability: resazurin assay. The note with it: at concentrations indicated in Table 4. As to the method: (§3) BEAS2B cells were seeded in 384-well plates (100 μL; 3000/well/; BD Falcon, Catalogue No 353962) in RPMI-LHC8 (RPMI-1640 and LHC8 media combined in equal proportions) one day before experimentation. For cell-free control wells, RPMI-LHC8 (100 μL) was added. Test compounds (0.5 μL of a DMSO solution) were added to give a final DMSO concentration of 0.5% using an Integra VIAFLO 96 (Integra, Zizers, Switzerland). BEAS2B cells were incubated with each test compound for 1 day (37° C./5% CO2 in RPMI-LHC8). After addition of resazurin stock solution (5 μL, 0.04%) the plates were incubated for a further 4 hr (37° C./5% CO2). The fluorescence of each well at 545 nm (excitation) and 590 nm (emission) was determined using a multi-scanner (Clariostar: BMG Labtech). The percentage loss of cell viability was calculated for each well relative to vehicle (0.5% DMSO) treatment. Where appropriate, a CC50 value was calculated from the concentration-response curve generated from the concentration-response curve for each test compound.

A short description of data set [2]: Cell viability: resazurin assay. As to conditions: human, BEAS2B cells; 1 day incubation, resazurin; n = 3. On the procedure: as §3
For data set [3], the system named is Aspergillus fumigatus NCPF7100. Briefly: Planktonic fungus growth: broth microdilution assay (NCPF7100). As to conditions: Aspergillus fumigatus, NCPF7100, read-out: MIC75 Values against Aspergillus fumigatus isolate NCPF7100.
Data set [4] concerns Aspergillus fumigatus TR46 (TR46/Y121F/T289A). Briefly: Planktonic fungus growth: broth microdilution assay (TR46). As to conditions: Aspergillus fumigatus, read-out: MIC75 Values against Aspergillus fumigatus isolate TR46. As to the method: as §1, §2
In data set [5] the test system is Aspergillus fumigatus L98H (TR34/L98H). Briefly: Planktonic fungus growth: broth microdilution assay (L98H). The note with it: Aspergillus fumigatus, read-out: MIC75 Values against Aspergillus fumigatus isolate L98H. As to the method:
as §1, §2

Data set [6] concerns Aspergillus fumigatus (NCPF2010). Briefly: Aspergillus fumigatus infection of BEAS2B bronchial epithelial cells (galactomannan). As to conditions: NCPF2010, 24 h, read-out: Infection of BEAS2B cells MIC50. As to the method:
BEAS2B cells were seeded in 96-well plates (100 μL; 3×10^4 cells/well; Catalogue No 3596, Sigma Aldrich, Dorset, UK) in 10% FBS RPMI-1640 and were then incubated (37° C., 5% CO2) for one day before experimentation. Test compounds (0.5 μL DMSO solution) or vehicle (DMSO) were added to each well to give a final DMSO concentration of 0.5%. BEAS2B cells were incubated with test compounds for 1 hr (35° C., 5% CO2) before infection with Aspergillus fumigatus (20 uL; Public Health England) conidia suspension (0.5×10^5/mL in 10% FBS RPMI-1640). The plate was incubated for 24 hr (35° C., 5% CO2). Supernatant (50 uL) was collected and transferred to a PCR plate (Catalogue No L1402-9700, Starlab, Milton Keynes, UK), which was frozen (−20° C.) until use. After thawing, supernatant (5 μL) was diluted 1:20 by adding R7-PBS solution (95 μL; 1:4 R7 to PBS; Bio-Rad Laboratories, Redmond, Wash., USA). Galactomannan levels in these samples (50 μL) were measured using Platelia GM-EIA kits (Bio-Rad Laboratories, Redmond, Wash., USA). The percentage inhibition for each well was calculated and the IC50 value was calculated from the concentration-response curve generated for each test compound.

The test system of data set [7] is Aspergillus fumigatus NCPF7099. Kind of data set: Planktonic fungus growth: broth microdilution assay (NCPF7099). The note with it: Aspergillus fumigatus, NCPF7099, n = 2-3, read-out: MIC75 Values against Aspergillus fumigatus isolate NCPF7099. As to the method:
as §1, §2

Values after ≈ are worked out from the molar mass of the structure shown.

As for `Cc1cc(N2CCN(c3ccc(C(=O)N[C@H]4CCCC[C@H]4O)cc3)CC2)ccc1OC[C@@H]1CO[C@@](Cn2cncn2)(c2ccc(F)cc2F)C1` [Compound (Ic), 4-(4-(4-(((3R,5R)-5-((1H-1,2,4-triazol-1-yl)methyl)-5-(2,4-difluorophenyl)tetrahydrofuran-3-yl)methoxy)-3-methylphenyl)piperazin-1-yl)-N-((1S,2R)-2-hydroxycyclohexyl)benzamide], the MIC in data set [1] is 0.00227 µM (≈ 1.56 ng/mL); in data set [3], 0.0109 µM (≈ 7.49 ng/mL); in data set [4], 0.164 µM (≈ 113 ng/mL); in data set [5] it was 0.0549 µM (≈ 37.7 ng/mL); in data set [7] it was 0.0115 µM (≈ 7.9 ng/mL). Also, the “effect on the viability of BEAS2B bronchial epithelial cells” value in the data set with BEAS2B cells is on record as “no or little effect”. Moreover, in data set [2], the 50% cytotoxic concentration (CC50) at 1 day was > 14.6 µM. Moreover, the MIC50 in data set [6] came to 0.00186 µM (≈ 1.28 ng/mL).
